Source: ChEMBL document CHEMBL4627246, “Pyroglutamide-Based P2X7 Receptor Antagonists Targeting Inflammatory Bowel Disease” (J Med Chem, 2020)

Experiments:
Type in all cases: cell-based
[1] = tested on: SR; experiment: Cytotoxicity against human SR cells assessed as effect on cell growth at 10 uM incubated for 48 hrs by sulforhodamine B assay
[2] = tested on: EKVX; experiment: Cytotoxicity against human EKVX cells assessed as effect on cell growth at 10 uM incubated for 48 hrs by sulforhodamine B assay
[3] = tested on: K562; experiment: Cytotoxicity against human K562 cells assessed as effect on cell growth at 10 uM incubated for 48 hrs by sulforhodamine B assay; settings: k562, 48 h
[4] = tested on: NCI-H322M; experiment: Cytotoxicity against human NCI-H322M cells assessed as effect on cell growth at 10 uM incubated for 48 hrs by sulforhodamine B assay
[5] = tested on: COLO 205; experiment: Cytotoxicity against human COLO205 cells assessed as effect on cell growth at 10 uM incubated for 48 hrs by sulforhodamine B assay; settings: colo 205, 48 h
[6] = tested on: HCC 2998; experiment: Cytotoxicity against human HCC2998 cells assessed as effect on cell growth at 10 uM incubated for 48 hrs by sulforhodamine B assay; settings: hcc 2998, 48 h
[7] = tested on: HCT-116; experiment: Cytotoxicity against human HCT116 cells assessed as effect on cell growth at 10 uM incubated for 48 hrs by sulforhodamine B assay; settings: hct-116, 48 h
[8] = tested on: KM12; experiment: Cytotoxicity against human KM12 cells assessed as effect on cell growth at 10 uM incubated for 48 hrs by sulforhodamine B assay; settings: km12, 48 h
[9] = tested on: SF-295; experiment: Cytotoxicity against human SF295 cells assessed as effect on cell growth at 10 uM incubated for 48 hrs by sulforhodamine B assay; settings: sf-295, 48 h
[10] = tested on: SNB-75; experiment: Cytotoxicity against human SNB75 cells assessed as effect on cell growth at 10 uM incubated for 48 hrs by sulforhodamine B assay; settings: snb-75, 48 h
[11] = tested on: Malme-3M; experiment: Cytotoxicity against human MALME-3M cells assessed as effect on cell growth at 10 uM incubated for 48 hrs by sulforhodamine B assay
[12] = tested on: SK-MEL-5; experiment: Cytotoxicity against human SK-MEL-5 cells assessed as effect on cell growth at 10 uM incubated for 48 hrs by sulforhodamine B assay; settings: sk-mel-5, 48 h
[13] = tested on: UACC-257; experiment: Cytotoxicity against human UACC257 cells assessed as effect on cell growth at 10 uM incubated for 48 hrs by sulforhodamine B assay; settings: uacc-257, 48 h
[14] = tested on: OVCAR-4; experiment: Cytotoxicity against human OVCAR4 cells assessed as effect on cell growth at 10 uM incubated for 48 hrs by sulforhodamine B assay; settings: ovcar-4, 48 h
[15] = tested on: OVCAR-8; experiment: Cytotoxicity against human OVCAR8 cells assessed as effect on cell growth at 10 uM incubated for 48 hrs by sulforhodamine B assay; settings: ovcar-8, 48 h
[16] = tested on: NCI/ADR-RES; experiment: Cytotoxicity against human NCI/ADR-RES cells assessed as effect on cell growth at 10 uM incubated for 48 hrs by sulforhodamine B assay
[17] = tested on: 786-0; experiment: Cytotoxicity against human 786-0 cells assessed as effect on cell growth at 10 uM incubated for 48 hrs by sulforhodamine B assay; settings: 786-0, 48 h
[18] = tested on: A498; experiment: Cytotoxicity against human A498 cells assessed as effect on cell growth at 10 uM incubated for 48 hrs by sulforhodamine B assay; settings: a498, 48 h
[19] = tested on: DU-145; experiment: Cytotoxicity against human DU145 cells assessed as effect on cell growth at 10 uM incubated for 48 hrs by sulforhodamine B assay; settings: du-145, 48 h
[20] = tested on: MDA-MB-468; experiment: Cytotoxicity against human MDA-MB-468 cells assessed as effect on cell growth at 10 uM incubated for 48 hrs by sulforhodamine B assay; settings: mda-mb-468, 48 h

Measured: Activity

O=C(NCC1CCCCC1)[C@@H]1CCC(=O)N1c1ccccc1
Non-Toxic: all assays above

Cc1ccc(NC(=O)[C@@H]2CCC(=O)N2c2ccccc2)cc1
Non-Toxic: all assays above

N#Cc1ccc(N2C(=O)CC[C@H]2C(=O)NCc2ccc(Cl)cc2Cl)cc1
Non-Toxic: all assays above

O=C(NCc1ccc(Cl)cc1Cl)[C@@H]1CCC(=O)N1c1ccc(Cl)cc1Cl
Non-Toxic: all assays above

CN1CCN(/C=C2\C[C@@H](C(=O)NCc3ccc(Cl)cc3Cl)N(c3cccs3)C2=O)CC1
Non-Toxic: all assays above

O=C(NCc1ccc(Cl)cc1Cl)[C@@H]1CCC(=O)N1C(c1ccccc1)c1ccccc1
Non-Toxic: all assays above

CN(C)/C=C1\C[C@H]2C(=O)N(Cc3ccccc3Cl)C(N(C)C)N2C1=O (stereo not given in full)
Non-Toxic: all assays above

O=C1N[C@H](C(=O)NCc2ccc(Cl)cc2Cl)C/C1=C\N1CCOCC1
Non-Toxic: all assays above

O=C(NCCc1ccc(Cl)cc1Cl)[C@@H]1CCC(=O)N1c1ccccc1
Non-Toxic: all assays above

O=C(NCc1ccccc1Cl)[C@@H]1CCC(=O)N1c1ccccc1
Non-Toxic: all assays above

COc1ccc(NC(=O)[C@@H]2C/C(=C\N(C)C)C(=O)N2)cc1
Non-Toxic: all assays above

CN1C(=O)CC[C@H]1C(=O)NCc1cccc(C(F)(F)F)c1Cl [GSK1482160]
Non-Toxic: all assays above
